Source: patent US20030224942A1, “Alkylamino-1,3,5-triazines, processes for their preparation and their use as herbicides and plant growth regulators” (priority 2001, published 2003)

Tests used:
[1] = test system: Chenopodium spp., Papaver spp., Polygonum spp., Veronica spp. or Viola spp.; assay: Post-emergence effect on weeds (greenhouse pot test, visual scoring); assay type: in vivo, monocotyledonous and dicotyledonous weeds; conditions: treated at three-leaf stage; visual scoring after about 3 to 4 weeks; application rate of 0.5 kg and less of active substance per hectare
[2] = test system: Cyperus spp., Echinochloa spp., Digitaria spp., Sagitaria spp. and Scirpus spp.; assay: Action on harmful plants in rice (paddy rice conditions, visual scoring); assay type: in vivo, typical rice weeds (gramineous and broad-leaved); conditions: applied into the dammed water, visual scoring about three weeks after application
Summary of the method: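 Under paddy conditions with 2-3 cm dammed water, transplanted and sown rice plus weeds were treated at three-leaf stage (E. crus-galli at 1.5 leaves). Pots stayed in greenhouse under optimum growth conditions for the test period, with visual assessment of damage.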

## C#Cc1ccc(CNc2nc(C)nc(N)n2)cc1 [Product P1.1580]
[1]
  herbicidal activity post-emergence against harmful plants: very good herbicidal activity
[2]
  herbicidal activity against harmful plants which are typical for rice crops: very good herbicidal activity

## CC#Cc1cccc(C(Nc2nc(C)nc(N)n2)C2CC2)c1 (centres unmarked) [Product P4.1582]
[1]
  herbicidal activity post-emergence against harmful plants: very good herbicidal activity
[2]
  herbicidal activity against harmful plants which are typical for rice crops: very good herbicidal activity

## C#Cc1ccc(C(Nc2nc(N)nc(C(C)C)n2)C2CC2)cc1 (centres unmarked) [Product P14.1580]
[1]
  herbicidal activity post-emergence against harmful plants: very good herbicidal activity
[2]
  herbicidal activity against harmful plants which are typical for rice crops: very good herbicidal activity

## C#Cc1cc(C(C)Nc2nc(N)nc(CC)n2)ccc1F (centres unmarked) [Product P7.309]
[1]
  herbicidal activity post-emergence against harmful plants: very good herbicidal activity
[2]
  herbicidal activity against harmful plants which are typical for rice crops: very good herbicidal activity

## CC(C)(F)c1nc(N)nc(NCc2cc(F)c(C(F)=C(F)F)c(F)c2)n1 [Product P16.49]
[1]
  herbicidal activity post-emergence against harmful plants: very good herbicidal activity
[2]
  herbicidal activity against harmful plants which are typical for rice crops: very good herbicidal activity

## C#Cc1c(F)cc(C(C)Nc2nc(C)nc(N)n2)cc1F (centres unmarked) [Product P2.352]
[1]
  herbicidal activity post-emergence against harmful plants: very good herbicidal activity
[2]
  herbicidal activity against harmful plants which are typical for rice crops: very good herbicidal activity

## CCc1nc(N)nc(NC(C)c2cccc(C(F)=C(F)F)c2)n1 (centres unmarked) [Product P7.1567]
[1]
  herbicidal activity post-emergence against harmful plants: very good herbicidal activity
[2]
  herbicidal activity against harmful plants which are typical for rice crops: very good herbicidal activity

## CC(O)C#Cc1cc(C(C)Nc2nc(N)nc(C(C)(C)F)n2)ccc1F (centres unmarked) [Product P17.840]
[1]
  herbicidal activity post-emergence against harmful plants: very good herbicidal activity
[2]
  herbicidal activity against harmful plants which are typical for rice crops: very good herbicidal activity

## CCc1nc(N)nc(NC(C)c2ccc(C3CC3)cc2)n1 (centres unmarked) [Product P7.1604]
[1]
  herbicidal activity post-emergence against harmful plants: very good herbicidal activity
[2]
  herbicidal activity against harmful plants which are typical for rice crops: very good herbicidal activity

## C#Cc1cccc(C(C)Nc2nc(N)nc(C(C)F)n2)c1 (centres unmarked) [Product P22.1579]
[1]
  herbicidal activity post-emergence against harmful plants: very good herbicidal activity
[2]
  herbicidal activity against harmful plants which are typical for rice crops: very good herbicidal activity

## CC(F)c1nc(N)nc(NC(C)c2ccc(F)c(C3CC3)c2)n1 (centres unmarked) [Product P22.916]
[1]
  herbicidal activity post-emergence against harmful plants: very good herbicidal activity
[2]
  herbicidal activity against harmful plants which are typical for rice crops: very good herbicidal activity

## CC(Nc1nc(N)nc(C(C)(C)F)n1)c1cccc(C2CC2)c1 (centres unmarked) [Product P17.1603]
[1]
  herbicidal activity post-emergence against harmful plants: very good herbicidal activity
[2]
  herbicidal activity against harmful plants which are typical for rice crops: very good herbicidal activity

## CC(C)c1nc(N)nc(NC(c2ccc(C(F)=C(F)F)cc2)C2CC2)n1 (centres unmarked) [Product P14.1568]
[1]
  herbicidal activity post-emergence against harmful plants: very good herbicidal activity
[2]
  herbicidal activity against harmful plants which are typical for rice crops: very good herbicidal activity

## C#Cc1cc(C(C)Nc2nc(N)nc(C(C)F)n2)ccc1F (centres unmarked) [Product P22.309]
[1]
  herbicidal activity post-emergence against harmful plants: very good herbicidal activity
[2]
  herbicidal activity against harmful plants which are typical for rice crops: very good herbicidal activity

## CC(C)(F)c1nc(N)nc(NCc2cccc(C3CC3)c2)n1 [Product P16.1603]
[1]
  herbicidal activity post-emergence against harmful plants: very good herbicidal activity
[2]
  herbicidal activity against harmful plants which are typical for rice crops: very good herbicidal activity

## CC(C)(F)c1nc(N)nc(NCc2cc(F)c(C3CC3)c(F)c2)n1 [Product P16.960]
[1]
  herbicidal activity post-emergence against harmful plants: very good herbicidal activity
[2]
  herbicidal activity against harmful plants which are typical for rice crops: very good herbicidal activity

## CC#Cc1ccc(C(Nc2nc(C)nc(N)n2)C2CC2)cc1 (centres unmarked) [Product P4.1583]
[1]
  herbicidal activity post-emergence against harmful plants: very good herbicidal activity
[2]
  herbicidal activity against harmful plants which are typical for rice crops: very good herbicidal activity

## CC#Cc1ccc(C(C)Nc2nc(N)nc(C(C)(C)F)n2)cc1 (centres unmarked) [Product P17.1583]
[1]
  herbicidal activity post-emergence against harmful plants: very good herbicidal activity
[2]
  herbicidal activity against harmful plants which are typical for rice crops: very good herbicidal activity

## C#Cc1c(F)cc(CNc2nc(C)nc(N)n2)cc1F [Product P1.352]
[1]
  herbicidal activity post-emergence against harmful plants: very good herbicidal activity
[2]
  herbicidal activity against harmful plants which are typical for rice crops: very good herbicidal activity

## Cc1nc(N)nc(NC(c2cc(F)c(C(F)=C(F)F)c(F)c2)C2CC2)n1 (centres unmarked) [Product P4.49]
[1]
  herbicidal activity post-emergence against harmful plants: very good herbicidal activity
[2]
  herbicidal activity against harmful plants which are typical for rice crops: very good herbicidal activity

## C#Cc1cc(CNc2nc(N)nc(CC)n2)ccc1F [Product P6.309]
[1]
  herbicidal activity post-emergence against harmful plants: very good herbicidal activity
[2]
  herbicidal activity against harmful plants which are typical for rice crops: very good herbicidal activity

## CC#Cc1cccc(C(C)Nc2nc(N)nc(C(F)CC)n2)c1 (centres unmarked) [Product P27.1582]
[1]
  herbicidal activity post-emergence against harmful plants: very good herbicidal activity
[2]
  herbicidal activity against harmful plants which are typical for rice crops: very good herbicidal activity

## CCCCC#Cc1cc(C(C)Nc2nc(N)nc(C(C)(C)F)n2)ccc1F (centres unmarked) [Product P17.688]
[1]
  herbicidal activity post-emergence against harmful plants: very good herbicidal activity
[2]
  herbicidal activity against harmful plants which are typical for rice crops: very good herbicidal activity

## CCc1nc(N)nc(NC(c2ccc(C3CC3)cc2)C2CC2)n1 (centres unmarked) [Product P9.1604]
[1]
  herbicidal activity post-emergence against harmful plants: very good herbicidal activity
[2]
  herbicidal activity against harmful plants which are typical for rice crops: very good herbicidal activity

## CCC(F)c1nc(N)nc(NCc2ccc(C3CC3)cc2)n1 (centres unmarked) [Product P26.1604]
[1]
  herbicidal activity post-emergence against harmful plants: very good herbicidal activity
[2]
  herbicidal activity against harmful plants which are typical for rice crops: very good herbicidal activity

## C#Cc1ccc(C(C)Nc2nc(C)nc(N)n2)cc1F (centres unmarked) [Product P2.1620]
[1]
  herbicidal activity post-emergence against harmful plants: very good herbicidal activity
[2]
  herbicidal activity against harmful plants which are typical for rice crops: very good herbicidal activity

## CC(F)c1nc(N)nc(NCc2cccc(C3CC3)c2)n1 (centres unmarked) [Product P21.1603]
[1]
  herbicidal activity post-emergence against harmful plants: very good herbicidal activity
[2]
  herbicidal activity against harmful plants which are typical for rice crops: very good herbicidal activity

## CC(O)C#Cc1cccc(C(C)Nc2nc(N)nc(C(C)(C)F)n2)c1 (centres unmarked) [Product P17.1600]
[1]
  herbicidal activity post-emergence against harmful plants: very good herbicidal activity
[2]
  herbicidal activity against harmful plants which are typical for rice crops: very good herbicidal activity

## C#Cc1ccc(C(C)Nc2nc(N)nc(C(C)C)n2)cc1F (centres unmarked) [Product P12.1620]
[1]
  herbicidal activity post-emergence against harmful plants: very good herbicidal activity
[2]
  herbicidal activity against harmful plants which are typical for rice crops: very good herbicidal activity

## CC#Cc1cc(CNc2nc(N)nc(C(C)(C)F)n2)ccc1F [Product P16.384]
[1]
  herbicidal activity post-emergence against harmful plants: very good herbicidal activity
[2]
  herbicidal activity against harmful plants which are typical for rice crops: very good herbicidal activity

## CC(C)c1nc(N)nc(NC(c2ccc(C3CC3)cc2)C2CC2)n1 (centres unmarked) [Product P14.1604]
[1]
  herbicidal activity post-emergence against harmful plants: very good herbicidal activity
[2]
  herbicidal activity against harmful plants which are typical for rice crops: very good herbicidal activity
